# Experiments:
# Format in all cases: in vivo
# [1] = system: ragweed (common ragweed, Ambrosia elatior); assay: Test A preemergence
# Description: (§1) Seeds of plant species selected from barnyardgrass (Echinochloa crus-galli), Kochia (Kochia scoparia), ragweed (common ragweed, Ambrosia elatior), ryegrass, Italian (Italian ryegrass, Lolium multiflorum), crabgrass, large (Digitaria sanguinalis), giant foxtail (Setaria faberii), green foxtail (Setaria viridis), morningglory (Ipomoea spp.), pigweed (Amaranthus retroflexus), velvetleaf (Abutilon theophrasti), wheat (Triticum aestivum), and corn (Zea mays) were planted into a blend of loam soil and sand and treated preemergence with a directed soil spray using test chemicals formulated in anon-phytotoxic solvent mixture which included a surfactant.
# (§2) At the same time, plants selected from these crop and weed species and also blackgrass (Alopecurus myosuroides), and Galium (catchweed bedstraw, Galium aparine) were planted in pots containing the same blend of loam soil and sand and treated with postemergence applications of test chemicals formulated in the same manner. Plants ranged in height from 2 to 10 cm and were in the one- to two-leaf stage for the postemergence treatment. Treated plants and untreated controls were maintained in a greenhouse for approximately 10 d, after which time all treated plants were compared to untreated controls and visually evaluated for injury. Plant response ratings, summarized in Table A, are based on a 0 to 100 scale where 0 is no effect and 100 is complete control. A dash (-) response means no test result.
# [2] = system: giant foxtail (Setaria faberii); assay: Test A preemergence
# Description: as §1, §2
# [3] = system: ryegrass, Italian (Italian ryegrass, Lolium multiflorum); assay: Test A preemergence
# Description: as §1, §2
# [4] = system: Kochia (Kochia scoparia); assay: Test A preemergence
# Description: as §1, §2
# [5] = system: pigweed (Amaranthus retroflexus); assay: Test A preemergence
# Description: as §1, §2
# [6] = system: barnyardgrass (Echinochloa crus-galli); assay: Test A preemergence
# Description: as §1, §2
# [7] = system: ragweed (common ragweed, Ambrosia elatior); assay: Test A postemergence
# Description: as §1, §2
# [8] = system: giant foxtail (Setaria faberii); assay: Test A postemergence
# Description: as §1, §2
# [9] = system: ryegrass, Italian (Italian ryegrass, Lolium multiflorum); assay: Test A postemergence
# Description: as §1, §2
# [10] = system: corn (Zea mays); assay: Test A postemergence
# Description: as §1, §2
# [11] = system: Kochia (Kochia scoparia); assay: Test A postemergence
# Description: as §1, §2
# [12] = system: pigweed (Amaranthus retroflexus); assay: Test A postemergence
# Description: as §1, §2
# [13] = system: wheat (Triticum aestivum); assay: Test A postemergence
# Description: as §1, §2
# [14] = system: Galium (catchweed bedstraw, Galium aparine); assay: Test A postemergence
# Description: as §1, §2
# [15] = system: blackgrass (Alopecurus myosuroides); assay: Test A postemergence
# Description: as §1, §2
# [16] = system: barnyardgrass (Echinochloa crus-galli); assay: Test A postemergence
# Description: as §1, §2
# [17] = system: ducksalad (Heteranthera limosa); assay: Test B flooded paddy test; conditions: Flood, 250 g ai/ha; 0 to 100 scale where 0 is no effect and 100 is complete control; 13 to 15 d
# Procedure: (§3) Plant species in the flooded paddy test selected from rice (Oryra sativa), sedge, umbrella (small-flower umbrella sedge, Cyperus difformis), ducksalad (Heteranthera limosa), and barnyardgrass (Echinochloa crus-galli) were grown to the 2-leaf stage for testing. At time of treatment, test pots were flooded to 3 cm above the soil surface, treated by application of test compounds directly to the paddy water, and then maintained at that water depth for the duration of the test. Treated plants and controls were maintained in a greenhouse for 13 to 15 d, after which time all species were compared to controls and visually evaluated. Plant response ratings, summarized in Table B, are based on a scale of 0 to 100 where 0 is no effect and 100 is complete control. A dash (-) response means no test result.
# [18] = system: sedge, umbrella (small-flower umbrella sedge, Cyperus difformis); assay: Test B flooded paddy test; conditions: Flood, 250 g ai/ha; 0 to 100 scale where 0 is no effect and 100 is complete control; 13 to 15 d
# Procedure: as §3
# [19] = system: rice (Oryra sativa); assay: Test B flooded paddy test; conditions: Flood, 250 g ai/ha; 0 to 100 scale where 0 is no effect and 100 is complete control; 13 to 15 d
# Procedure: as §3
# [20] = system: barnyardgrass (Echinochloa crus-galli); assay: Test B flooded paddy test; conditions: Flood, 250 g ai/ha; 0 to 100 scale where 0 is no effect and 100 is complete control; 13 to 15 d
# Procedure: as §3
# [21] = system: redroot pigweed (Amaranthus retroflexus); assay: Test G Post-Emergence Protocol
# Procedure: (§4) Seeds of corn (Zea mays), giant foxtail (Setaria faberi), barnyardgrass (Echinochloa crus-galli), ivy-leaved morning glory (Ipomoea hederacea), redroot pigweed (Amaranthus retroflexus) and velvetleaf (Abutilon theophrasti) were sown in standard soil in pots. After cultivation for 8 days under controlled conditions in a glasshouse (at 24/16° C., day/night; 14 hours light; 65% humidity), the plants were sprayed with an aqueous spray solution derived from the formulation of the technical active ingredient in acetone/water (50:50) solution containing 0.5% Tween 20 (polyoxyethylene sorbitan monolaurate, CAS RN 9005-64-5) to give a final dose of 15.625, 62.5 or 250 g/ha of test compound.
# (§5) The test plants were then grown on under controlled conditions in a glasshouse (at 24/16° C., day/night; 14 hours light; 65% humidity) and watered twice daily. After 13 days the test was evaluated (100=total damage to plant; 0=no damage to plant). A dash (-) means no test result.
# [22] = system: ivy-leaved morning glory (Ipomoea hederacea); assay: Test G Post-Emergence Protocol
# Procedure: as §4, §5
# [23] = system: corn (Zea mays); assay: Test G Post-Emergence Protocol
# Procedure: as §4, §5
# [24] = system: giant foxtail (Setaria faberi); assay: Test G Post-Emergence Protocol
# Procedure: as §4, §5
# [25] = system: barnyardgrass (Echinochloa crus-galli); assay: Test G Post-Emergence Protocol
# Procedure: as §4, §5
# [26] = system: velvetleaf (Abutilon theophrasti); assay: Test G Post-Emergence Protocol
# Procedure: as §4, §5
# [27] = system: redroot pigweed (Amaranthus retroflexus); assay: Test G Pre-Emergence Protocol; conditions: evaluated after 13 days
# Procedure: as §4, with “one day” for “8 days”
# as §5
# [28] = system: ivy-leaved morning glory (Ipomoea hederacea); assay: Test G Pre-Emergence Protocol; conditions: evaluated after 13 days
# Procedure: as §4, with “one day” for “8 days”
# as §5
# [29] = system: corn (Zea mays); assay: Test G Pre-Emergence Protocol; conditions: evaluated after 13 days
# Procedure: as §4, with “one day” for “8 days”
# as §5
# [30] = system: giant foxtail (Setaria faberi); assay: Test G Pre-Emergence Protocol; conditions: evaluated after 13 days
# Procedure: as §4, with “one day” for “8 days”
# as §5
# [31] = system: barnyardgrass (Echinochloa crus-galli); assay: Test G Pre-Emergence Protocol; conditions: evaluated after 13 days
# Procedure: as §4, with “one day” for “8 days”
# as §5
# [32] = system: velvetleaf (Abutilon theophrasti); assay: Test G Pre-Emergence Protocol; conditions: evaluated after 13 days
# Procedure: as §4, with “one day” for “8 days”
# as §5
# [33] = 125 g ai/ha, preemergence, 0 to 100 scale (0 no effect, 100 complete control)
# [34] = Preemergence, 500 g ai/ha, 0 is no effect, 100 is complete control
# [35] = 500 g ai/ha, postemergence, 0 to 100 scale, 0 no effect, 100 complete control
# [36] = Postemergence, 125 g ai/ha, visual injury, 0 to 100 scale (0 no effect, 100 complete control), approx. 10 d
# [37] = 15.625 g ai/ha, evaluated after 13 days (100=total damage to plant; 0=no damage to plant)
# [38] = 62.5 g ai/ha, evaluated after 13 days, 100=total damage to plant, 0=no damage to plant
# [39] = 250 g ai/ha, evaluated after 13 days, 100=total damage to plant, 0=no damage to plant
# [40] = 62.5 g ai/ha, 100=total damage to plant, 0=no damage to plant
smiles,measurement,setting,value
O=C1NCC(c2cccc(F)c2)C1C(=O)Nc1ccccc1C(F)(F)F (racemic) [Compound 376],"Plant response rating, Ragweed",[1]; [33],0
same,Ragweed plant response rating (0 to 100 scale),[1]; [34],0
same,"Plant response rating, Foxtail, Giant",[2]; [33],90
same,"Foxtail, Giant plant response rating (0 to 100 scale)",[2]; [34],90
same,"Plant response rating, Ryegrass, Italian",[3]; [33],0
same,"Ryegrass, Italian plant response rating (0 to 100 scale)",[3]; [34],20
same,"Plant response rating, Kochia",[4]; [33],0
same,Kochia plant response rating (0 to 100 scale),[4]; [34],0
same,"Plant response rating, Pigweed",[5]; [33],0
same,Pigweed plant response rating (0 to 100 scale),[5]; [34],0
same,"Plant response rating, Barnyardgrass",[6]; [33],90
same,Barnyardgrass plant response rating (0 to 100 scale),[6]; [34],90
same,"Plant response rating, Ragweed",[7]; [35],20
same,"Plant response rating, Ragweed",[7]; [36],0
same,"Plant response rating, Foxtail, Giant",[8]; [35],90
same,"Plant response rating, Foxtail, Giant",[8]; [36],90
same,"Plant response rating, Ryegrass, Italian",[9]; [35],20
same,"Plant response rating, Ryegrass, Italian",[9]; [36],0
same,"Plant response rating, Corn",[10]; [35],30
same,"Plant response rating, Corn",[10]; [36],0
same,"Plant response rating, Kochia",[11]; [35],20
same,"Plant response rating, Kochia",[11]; [36],0
same,"Plant response rating, Pigweed",[12]; [35],0
same,"Plant response rating, Pigweed",[12]; [36],0
same,"Plant response rating, Wheat",[13]; [35],0
same,"Plant response rating, Wheat",[13]; [36],0
same,"Plant response rating, Galium",[14]; [35],30
same,"Plant response rating, Galium",[14]; [36],30
same,"Plant response rating, Blackgrass",[15]; [35],40
same,"Plant response rating, Blackgrass",[15]; [36],0
same,"Plant response rating, Barnyardgrass",[16]; [35],90
same,"Plant response rating, Barnyardgrass",[16]; [36],90
same,"Plant response rating, Ducksalad",[17],100
same,"Plant response rating, Sedge, Umbrella",[18],0
same,"Plant response rating, Rice",[19],0
same,"Plant response rating, Barnyardgrass",[20],70
CN1C[C@H](c2cccc(C(F)(F)F)c2)[C@@H](C(=O)Nc2cccc(F)n2)C1=O [Compound 1816],"Pigweed, Redroot damage rating",[21]; [37],10
same,"Pigweed, Redroot damage rating",[21]; [38],40
same,"Pigweed, Redroot damage rating",[21]; [39],70
same,"Morningglory, Ivy-leaved damage rating",[22]; [37],10
same,"Morningglory, Ivy-leaved damage rating",[22]; [38],60
same,"Morningglory, Ivy-leaved damage rating",[22]; [39],70
same,Corn damage rating,[23]; [37],70
same,Corn damage rating,[23]; [38],80
same,Corn damage rating,[23]; [39],80
same,"Foxtail, Giant damage rating",[24]; [37],80
same,"Foxtail, Giant damage rating",[24]; [38],80
same,"Foxtail, Giant damage rating",[24]; [39],80
same,Barnyardgrass damage rating,[25]; [37],80
same,Barnyardgrass damage rating,[25]; [38],80
same,Barnyardgrass damage rating,[25]; [39],80
same,Velvetleaf damage rating,[26]; [37],0
same,Velvetleaf damage rating,[26]; [38],30
same,Velvetleaf damage rating,[26]; [39],30
same,"Pigweed, Redroot damage rating (100=total damage to plant; 0=no damage to plant)",[27]; 15.625 g ai/ha,0
same,"Pigweed, Redroot damage rating",[27]; [40],40
same,"Pigweed, Redroot damage rating (100=total damage to plant; 0=no damage to plant)",[27]; 250 g ai/ha,80
same,"Morningglory, Ivy-leaved damage rating (100=total damage to plant; 0=no damage to plant)",[28]; 15.625 g ai/ha,20
same,"Morningglory, Ivy-leaved damage rating",[28]; [40],60
same,"Morningglory, Ivy-leaved damage rating (100=total damage to plant; 0=no damage to plant)",[28]; 250 g ai/ha,80
same,Corn damage rating (100=total damage to plant; 0=no damage to plant),[29]; 15.625 g ai/ha,70
same,Corn damage rating,[29]; [40],80
same,Corn damage rating (100=total damage to plant; 0=no damage to plant),[29]; 250 g ai/ha,80
same,"Foxtail, Giant damage rating (100=total damage to plant; 0=no damage to plant)",[30]; 15.625 g ai/ha,90
same,"Foxtail, Giant damage rating",[30]; [40],90
same,"Foxtail, Giant damage rating (100=total damage to plant; 0=no damage to plant)",[30]; 250 g ai/ha,90
same,Barnyardgrass damage rating (100=total damage to plant; 0=no damage to plant),[31]; 15.625 g ai/ha,90
same,Barnyardgrass damage rating,[31]; [40],90
same,Barnyardgrass damage rating (100=total damage to plant; 0=no damage to plant),[31]; 250 g ai/ha,90
same,Velvetleaf damage rating (100=total damage to plant; 0=no damage to plant),[32]; 15.625 g ai/ha,0
same,Velvetleaf damage rating,[32]; [40],20
same,Velvetleaf damage rating (100=total damage to plant; 0=no damage to plant),[32]; 250 g ai/ha,60

# From patent US12077503B2, “Substituted cyclic amides and their use as herbicides” (FMC CORPORATION, priority 2015, dated 2024)
